The values that follow come from US7851474B2, “Dipiperazinyl ketones and related analogues” (Neurogen Corporation, priority 2005, dated 2010).

pKi: −log10 of the molar value. Read-outs that look alike come from different tables or passages of the source.

The pKi is the Ki on a negative log10 scale, so that one unit is a factor of ten.

For the assay, the target named is T1, chimeric human H3 receptor (Homo sapiens, UniProt Q9Y5N1, E19D).
T1 construct: made in house; host or cells: Sf9 insect cells (baculovirus infection); P2 membrane preparation
T1 sequence (Q9Y5N1 with tags, fused parts or gaps E19D): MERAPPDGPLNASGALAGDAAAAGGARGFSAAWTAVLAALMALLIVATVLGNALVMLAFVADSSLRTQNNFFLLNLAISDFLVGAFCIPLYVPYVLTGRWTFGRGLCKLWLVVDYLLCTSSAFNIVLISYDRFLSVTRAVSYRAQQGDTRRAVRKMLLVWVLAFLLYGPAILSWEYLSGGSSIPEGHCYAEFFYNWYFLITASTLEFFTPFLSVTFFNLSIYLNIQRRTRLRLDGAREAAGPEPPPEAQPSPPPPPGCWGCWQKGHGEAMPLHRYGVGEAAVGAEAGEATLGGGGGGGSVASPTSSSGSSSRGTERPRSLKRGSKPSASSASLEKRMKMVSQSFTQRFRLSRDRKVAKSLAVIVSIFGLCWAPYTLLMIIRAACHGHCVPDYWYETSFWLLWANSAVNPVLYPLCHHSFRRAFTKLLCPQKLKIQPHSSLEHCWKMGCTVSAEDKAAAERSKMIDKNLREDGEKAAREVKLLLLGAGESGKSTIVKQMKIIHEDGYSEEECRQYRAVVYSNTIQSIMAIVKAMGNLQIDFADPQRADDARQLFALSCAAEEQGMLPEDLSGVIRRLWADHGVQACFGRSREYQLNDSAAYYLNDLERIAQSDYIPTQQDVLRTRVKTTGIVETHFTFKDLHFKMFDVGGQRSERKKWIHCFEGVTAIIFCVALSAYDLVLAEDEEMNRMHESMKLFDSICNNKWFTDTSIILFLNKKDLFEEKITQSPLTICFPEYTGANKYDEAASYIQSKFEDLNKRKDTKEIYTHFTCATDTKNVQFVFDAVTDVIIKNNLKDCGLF
The experiment in a line: Chimeric human H3 receptor GTP binding assay (agonist-stimulated GTP-gamma35S binding, Example 7). The format is biochemical. The note with it: read-out: Ki. Put shortly:
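Sf9 membranes co-expressing the chimeric receptor and heterotrimeric G-protein subunits, 35 μg protein per tube, in pH 7.4 Tris buffer with 10 μM GDP. Test compounds at 10^−10 to 10^−6 M with 1 μM histamine, 60 min at room temperature. Filter-bound GTP-gamma^35S read by scintillation; IC50 from non-linear regression of dose-response curves.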
A general note: Binding of GTPγS marks nucleotide exchange on a G protein.

The mark [1] stands for this setting: Table II, assay of Example 7, "*" in Ki.
Setting [2] is: assay of Example 7, "*" in Ki of Table II.
Where [3] appears, read: Table II, "*" in Ki, assay of Example 7.
Setting [4] is: assay of Example 7, symbol * in column headed Ki of Table II.
The mark [5] stands for this setting: Table II "Ki", symbol "*": Ki in the assay of Example 7.

For `Cc1ccc(-c2ccc(N3CCN(CC(=O)N4CCN(C5CCC5)CC4)CC3)nn2)cc1` [Compound 1012, 3-{4-[2-(4-cyclobutylpiperazin-1-yl)-2-oxoethyl]piperazin-1-yl}-6-(4-methylphenyl)pyridazine], the pKi under setting [1] is over 6.00. Same read-out and setting: then `COc1ccc(N2CCN(CC(=O)N3CCN(C4CCCCC4)CC3)CC2C)cc1` (stereo not drawn) [Compound 1106, 4-[2-(4-cyclohexylpiperazin-1-yl)-2-oxoethyl]-1-(4-methoxyphenyl)-2-methylpiperazine], with over 6.00. Regarding `O=C(CC1CCCCC1)NC1CCN(CC(=O)N2CCN(C3CCC3)CC2)C1` (stereo not drawn) [Compound 1249, N-{1-[2-(4-cyclobutylpiperazin-1-yl)-2-oxoethyl]pyrrolidin-3-yl}-2-cyclohexylacetamide], the pKi under setting [2] was over 6.00.

`CCc1ccc(-c2ccc(N3CCN(CC(=O)N4CCN(C5CCC5)CC4)CC3)cc2)cc1` [Compound 770, 1-cyclobutyl-4-{[4-(4′-ethylbiphenyl-4-yl)piperazin-1-yl]acetyl}piperazine]: the pKi under setting [3] is over 6.00. With `O=C(OCc1ccccc1)c1cccc(N2CCN(CC(=O)N3CCN(C4CCC4)CC3)CC2)c1` [Compound 1193, benzyl 3-{4-[2-(4-cyclobutylpiperazin-1-yl)-2-oxoethyl]piperazin-1-yl}benzoate], the pKi under setting [2] is over 6.00. As to `CNC(=O)c1ccc(N2CCN(CC(=O)N3CCN(C4CCC4)CC3)CC2)cc1` [Compound 1122, 4-{1-[2-(4-cyclobutylpiperazin-1-yl)-2-oxoethyl]piperazin-1-yl}-N-methylbenzamide], under setting [1], the pKi is over 6.00. Take `CC1CN(c2ccc(C(F)(F)F)cn2)CCN1CC(=O)N1CCN(C2CCCC2)CC1` (stereo not drawn) [Compound 442, 1-[2-(4-cyclopentylpiperazin-1-yl)-2-oxoethyl]-2-methyl-4-[5-(trifluoromethyl)pyridin-2-yl]piperazine]: the pKi under setting [4] was over 6.00.

Consider `CSc1ccc(C(=O)NC2CCN(CC(=O)N3CCN(C4CCC4)CC3)C2)cc1` (stereo not drawn) [Compound 1241, N-{1-[2-(4-cyclobutylpiperazin-1-yl)-2-oxoethyl]pyrrolidin-3-yl}-4-(methylthio)benzamide], for which, under setting [2], the pKi was over 6.00. On to `O=C(CN1CCN(c2ccc(-c3cc(F)ccc3F)nn2)CC1)N1CCN(C2CCC2)CC1` [Compound 1048, 3-{4-[2-(4-cyclobutylpiperazin-1-yl)-2-oxoethyl]piperazin-1-yl}-6-(2,5-difluorophenyl)pyridazine], for which the pKi under setting [1] is over 6.00. As for `CC(C)N1CCN(C(=O)CN2CCN(c3ccc(F)cc3F)CC2)CC1` [Compound 264, 1-(2,4-difluorophenyl)-4-[2-(4-isopropylpiperazin-1-yl)-2-oxoethyl]piperazine], the pKi under setting [4] was over 6.00. On to `CCC(C)N1CCN(C(=O)CN2CCN(c3ccc(Cl)c(OC)c3)CC2)CC1` (stereo not drawn) [Compound 877, 1-sec-butyl-4-{[4-(4-chloro-3-methoxyphenyl)piperazin-1-yl]acetyl}piperazine], for which the pKi under setting [5] was over 6.00. With `O=C(c1ccccc1)c1ccc(N2CCN(CC(=O)N3CCN(C4CCC4)CC3)CC2)cc1` [Compound 248, (4-{4-[2-(4-cyclobutylpiperazin-1-yl)-2-oxoethyl]piperazin-1-yl}phenyl)(phenyl)methanone], under setting [4], the pKi is over 6.00. For the molecule `CC(C)N1CCN(C(=O)CN2CCN(c3ccc(Cl)cc3)CC2)CC1` [Compound 360, 1-(4-chlorophenyl)-4-[2-(4-isopropylpiperazin-1-yl)-2-oxoethyl]piperazine], the pKi under setting [4] is over 6.00. Still for that read-out and setting: to `O=C(CN1CCN(c2ccc(-c3ccc(Cl)c(F)c3)cc2)CC1)N1CCN(C2CCC2)CC1` [Compound 343, 1-(4′-chloro-3′-fluorobiphenyl-4-yl)-4-[2-(4-cyclobutylpiperazin-1-yl)-2-oxoethyl]piperazine] belongs over 6.00. Regarding `O=C(CN1CCN(c2ccc(C(=O)N3CCCCC3)cn2)CC1)N1CCN(C2CCC2)CC1` [Compound 610, 1-cyclobutyl-4-({4-[5-(piperidin-1-ylcarbonyl)pyridin-1-yl]piperazin-1-yl}acetyl)piperazine], the negative logarithm of the Ki (pKi) under setting [3] is over 6.00. For `O=C(CN1CCN(C(=O)C2CCCO2)CC1)N1CCN(C2CCCC2)CC1` (stereo not drawn) [Compound 841, 1-cyclopentyl-4-{[4-(tetrahydrofuran-2-ylcarbonyl)piperazin-1-yl]acetyl}piperazine], under setting [5], the pKi is over 6.00. As for `O=C(CN1CCC(N2CCCCC2)CC1)N1CCN(C2CCCCC2)CC1` [Compound 437, 1′-[2-(4-cyclohexylpiperazin-1-yl)-2-oxoethyl]-1,4′-bipiperidine], under setting [4], the pKi is over 6.00. `CC(=O)N1CCN(CC(=O)N2CCN(C3CCC3)CC2)CC1` [Compound 483, 1-acetyl-4-[2-(4-cyclobutylpiperazin-1-yl)-2-oxoethyl]piperazine]: where the note is “"*" in Ki of Table II, assay of Example 7”, the pKi was over 6.00. On to `CC(C)N(C)C(=O)c1cccc(N2CCN(CC(=O)N3CCN(C4CCC4)CC3)CC2)c1` [Compound 1067, 3-{4-[2-(4-cyclobutylpiperazin-1-yl)-2-oxoethyl]piperazin-1-yl}-N-isopropyl-N-methylbenzamide], for which the negative logarithm of the Ki (pKi) under setting [1] was over 6.00. As for `CCC(C)NC(=O)c1cccc(N2CCN(CC(=O)N3CCN(C4CCC4)CC3)CC2)c1` (stereo not drawn) [Compound 1203, N-(sec-butyl)-3-{4-[2-(4-cyclobutylpiperazin-1-yl)-2-oxoethyl]piperazin-1-yl}benzamide], the pKi under setting [2] was over 6.00. In the case of `CS(=O)(=O)c1ccc(N2CCN(CC(=O)N3CCN(C4CCC4)CC3)CC2)cc1` [Compound 599, 1-cyclobutyl-4-({4-[4-(methylsulfonyl)phenyl]piperazin-1-yl}acetyl)piperazine], the pKi under setting [3] was over 6.00. In the case of `CCOc1cccc(C(=O)NC2CCN(CC(=O)N3CCN(C4CCC4)CC3)C2)c1` (stereo not drawn) [Compound 1239, N-{1-[2-(4-cyclobutylpiperazin-1-yl)-2-oxoethyl]pyrrolidin-3-yl}-3-ethoxybenzamide], the pKi under setting [2] is over 6.00. Take `O=C(CN1CCN(c2ncc(F)cn2)CC1)N1CCN(C2CCC2)CC1` [Compound 916, 2-{4-[2-(4-cyclobutylpiperazin-1-yl)-2-oxoethyl]piperazin-1-yl}-5-fluoropyrimidine]: under setting [5], the pKi is over 6.00.

For `CCC(C)N1CCN(C(=O)CN2CCN(c3ccc(Cl)c(Cl)c3)CC2)CC1` (stereo not drawn) [Compound 869, 1-sec-butyl-4-{[4-(3,4-dichlorophenyl)piperazin-1-yl]acetyl}piperazine], the pKi under setting [5] is over 6.00.

As for `COc1ccc(N2CCN(CC(=O)N3CCN(C4CCCCC4)CC3)CC2)cc1OC` [Compound 816, 1-cyclohexyl-4-{[4-(3,4-dimethoxyphenyl)piperazin-1-yl]acetyl}piperazine], the pKi under setting [5] is over 6.00. On to `CSc1ccc(C(=O)NC2CCN(CC(=O)N3CCN(C4CCC4)CC3)CC2)cc1` [Compound 1222, N-{1-[2-(4-cyclobutylpiperazin-1-yl)-2-oxoethyl]piperidin-4-yl}-4-(methylthio)benzamide], for which, under setting [2], the pKi was over 6.00.

As to `CC(=O)c1ccc(N2CCN(CC(=O)N3CCN(C4CCC4)CC3)CC2=O)cc1` [Compound 333, 1-(4-acetylphenyl)-4-[2-(4-cyclobutylpiperazin-1-yl)-2-oxoethyl]piperazin-2-one], the pKi under setting [4] is over 6.00. Turning to `C=CCNC(=O)c1ccc(N2CCN(CC(=O)N3CCN(C4CCC4)CC3)CC2)cc1` [Compound 1261, N-allyl-4-{4-[2-(4-cyclobutylpiperazin-1-yl)-2-oxoethyl]piperazin-1-yl}benzamide], under setting [2], the pKi was over 6.00. Consider `Cc1ccc(C(=O)NC2CCN(CC(=O)N3CCN(C4CCC4)CC3)C2)cc1C` (stereo not drawn) [Compound 1232, N-{1-[2-(4-cyclobutylpiperazin-1-yl)-2-oxoethyl]pyrrolidin-3-yl}-3,4-dimethylbenzamide], for which the pKi under setting [2] was over 6.00.

`CN(C)c1ccc(-c2ccc(N3CCN(CC(=O)N4CCN(C5CCC5)CC4)CC3)nn2)cc1` [Compound 1099, 4-(6-{4-[2-(4-cyclobutylpiperazin-1-yl)-2-oxoethyl]piperazin-1-yl}pyndazin-3-yl)-N,N-dimethylaniline]: the pKi under setting [1] was over 6.00. In the case of `Cc1cc(C)cc(-c2ccc(N3CCN(CC(=O)N4CCN(C5CCC5)CC4)CC3)cc2)c1` [Compound 743, 1-cyclobutyl-4-{[4-(3′,5′-dimethylbiphenyl-4-yl)piperazin-1-yl]acetyl}piperazine], under setting [3], the pKi was over 6.00. Take `CCCC(C)C(=O)NC1CCN(CC(=O)N2CCN(C3CCC3)CC2)CC1` (stereo not drawn) [Compound 1210, N-{1-[2-(4-cyclobutylpiperazin-1-yl)-2-oxoethyl]piperidin-4-yl}-2-methylpentanamide]: the pKi under setting [2] is over 6.00. In the case of `CCC(C)N1CCN(C(=O)CN2CCN(c3ccc(F)c(C(F)(F)F)c3)CC2)CC1` (stereo not drawn) [Compound 856, 1-sec-butyl-4-({4-[4-fluoro-3-(trifluoromethyl)phenyl]piperazin-1-yl}acetyl)piperazine], under setting [5], the pKi was over 6.00. The same measure, in the same setting: to `O=C(CN1CCN(c2cccc(-c3ccc(F)cc3)c2)CC1)N1CCN(C2CCC2)CC1` [Compound 773, 1-cyclobutyl-4-{[4-(4′-fluorobiphenyl-3-yl)piperazin-1-yl]acetyl}piperazine] belongs over 6.00. For `N#Cc1cccc(-c2ccc(N3CCN(CC(=O)N4CCN(C5CCC5)CC4)CC3)nn2)c1` [Compound 997, 3-(6-{4-[2-(4-cyclobutylpiperazin-1-yl)-2-oxoethyl]piperazin-1-yl}pyridazin-3-yl)benzonitrile], the pKi under setting [1] was over 6.00. With `CCOC(=O)c1cccc(-c2ccc(N3CCN(CC(=O)N4CCN(C5CCC5)CC4)CC3)cc2)c1` [Compound 1200, ethyl 4′-{4-[2-(4-cyclobutylpiperazin-1-yl)-2-oxoethyl]piperazin-1-yl}biphenyl-3-carboxylate], under setting [2], the pKi was over 6.00.
